Molecular target: T1, enabled homolog (ENAH) (Homo sapiens, UniProt Q8N8S7)
T1 sequence (Q8N8S7 1-591): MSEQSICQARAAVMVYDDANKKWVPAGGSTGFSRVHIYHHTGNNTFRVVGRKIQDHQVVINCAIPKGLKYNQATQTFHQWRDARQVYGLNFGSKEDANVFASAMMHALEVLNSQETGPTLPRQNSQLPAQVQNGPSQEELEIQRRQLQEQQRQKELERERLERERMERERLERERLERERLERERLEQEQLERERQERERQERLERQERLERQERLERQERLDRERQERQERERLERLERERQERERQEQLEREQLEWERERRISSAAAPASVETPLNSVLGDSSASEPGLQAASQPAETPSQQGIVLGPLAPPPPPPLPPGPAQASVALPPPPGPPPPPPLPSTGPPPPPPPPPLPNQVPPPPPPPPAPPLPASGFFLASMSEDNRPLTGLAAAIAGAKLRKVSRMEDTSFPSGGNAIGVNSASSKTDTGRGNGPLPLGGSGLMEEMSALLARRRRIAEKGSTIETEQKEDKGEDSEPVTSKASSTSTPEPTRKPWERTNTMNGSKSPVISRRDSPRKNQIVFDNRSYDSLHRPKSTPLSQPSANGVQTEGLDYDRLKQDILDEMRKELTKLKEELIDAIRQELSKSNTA
Assay: CETSA in HCCLM3 cells ([…] daunorubicin), western blot
Assay type: cell-based

Q: For `COc1cccc2c1C(=O)c1c(O)c3c(c(O)c1C2=O)C[C@@](O)(C(C)=O)C[C@@H]3O[C@H]1C[C@H](N)[C@H](O)[C@H](C)O1` [compound 11, daunorubicin], which “CETSA in HCCLM3 cells (1 μM daunorubicin), western blot” value is on record?
A: The interaction between ENAH and daunorubicin was confirmed by the cellular thermal shift assay (CETSA)

Source: PMC12148948, “Targeting enabled homolog with daunorubicin inhibits ERK1/2/c‐Fos pathway and suppresses hepatocellular carcinoma progression” (Clinical and Translational Medicine, 2025)
